The source of these data is US20220381772A1, “SYSTEMS AND METHODS FOR EVALUATING NK CELLS” (The Regents of The University of California, priority 2019, published 2022).

Type in all cases: cell-based, human
The subject of one data set is OSCCs. The experiment in a line: Chemo-drug induced cell death, propidium iodide staining and flow cytometry. To be noted: patient-derived differentiated OSCCs. As for the experimental part:
(§1) OSCCs or OSCSCs were seeded at 1×10^5 cells/well in 24-well plate for 24 h prior to the addition of highly purified NK cells pre-treated with IL-2 (1000 units/ml) for 24 h. NK cells were added to tumor cells at 2:1 effector to target ratio. At time 0 when NK cells were added to the tumor culture, a final concentration of 10 μg/ml of propidium iodide (PI) was also added. The cells were then subsequently tracked for over 72 h using time-lapse microscopy with Nikon Eclipse Ti-E inverted microscope fitted with a culture chamber to provide cells with a stable temperature of 37° C. with 5% CO2. An image was taken every 15 min and a representation is shown at day 1, day 1½, and day 3. OSCSCs but not OSCCs which are lysed take up PI and appear orange in the time-lapse (A). NK cells were left untreated or treated with IL-2 (1000 units/ml), anti-CD16 mAb (3 μg/ml), or a combination of IL-2 (1000 units/ml) and anti-CD16 mAb (3 μg/ml) for 18 h before they were added to ^51Cr-labeled OSCSCs and OSCCs. NK cell-mediated cytotoxicity was determined using a standard 4 h ^51Cr release assay and the lytic units 30/10^6 cells were determined using inverse number of NK cells required to lyse 30% of the target cells×100 (B). NK cells were treated as described in (B) and each NK sample was either cultured in the absence or presence of OSCSCs and OSCCs at an NK cell to target cell ratio of 0.5:1. After an overnight incubation, the supernatants were removed from the co-cultures and the levels of IFN-γ secretion were determined using specific ELISAs. One of minimum three representative experiments is shown in each of (C). The surface expression of MHC class I and CD44 on OSCCs and OSCSCs were assessed with flow cytometric analysis after staining with the respective PE-conjugated antibodies. Isotype control antibodies were used as control. The numbers on the right hand corner are the percentages and the mean channel fluorescence intensities for each histogram (D). The surface expression of CD338 on OSCCs and OSCSCs was assessed by flow cytometric analysis after staining with PE-conjugated CD338 (right graphs in the histogram). Isotype control antibodies were used as control (left graphs in the histograms) (E). OSCCs and OSCSCs were left untreated or treated with 10-80 μg/ml of cisplatin for 18 h, after which the tumor cells were washed with 1×PBS, detached, and stained with propidium iodide (PI) and percent cell death was determined using flow cytometric analysis (F).
Background: Flow cytometry measures light scatter and fluorescence of single cells or particles in a stream.

A further data set has as its system OSCSCs. Described as above. As for the experimental part: as §1
The test system of data set [1] is MP2 tumors. The data set can be described thus: Paclitaxel-induced cell death, propidium iodide staining. The following applies: for cell death: poorly differentiated MP2, 18-20 hours. As to the method:
(§2) P-values of <0.05 were obtained for differences between MP2 vs. PL12 and Capan at the concentrations of 10 nM, 200 nM, 600 nM, 1000 nM and […] of Paclitaxel (n=2 per each experimental condition).
(§3) The viability of cells was determined by staining with propidium iodide (n=3/each experimental condition).

In a further data set the test system is PL12 tumors. Described as above. The following applies: for cell death: well-differentiated PL12, compared with MP2, 18-20 hours. As to the method:
as §2

Data set [2] deals with NK-supernatant differentiated MP2 tumors. The data set is described as above. To be noted: for cell death: MP2 differentiated with NK-supernatants 5 days, paclitaxel 10 nM to 600 nM, 18-24 h. As for the experimental part:
as §3

In the next data set the test system is Capan tumors. Described as above. As for the experimental part: as §2
Data set [3] has as its system MP2 tumors. The data set can be described thus: Surface expression of CD44, CD54, MHC-class I and B7H1, flow cytometry. To be noted: rhIFN-γ 200 U/mL, 24 h. As to the method:
(§4) Freshly isolated NK cells were left untreated or treated with IL-2 (1000 U/mL) or the combination of anti-CD16 mAb (3 μg/mL) and IL-2 (1000 U/mL) for 18 h before they were used in co-cultures with ^51Cr labeled MP2, and PL12. NK cell-mediated cytotoxicity was determined using 4-hour ^51Cr release assay, and the lytic units 30/10^6 cells were determined using inverse number of NK cells required to lyse 30% of the target cells×100 (n=5 independent experiments). (FIG. 25A). Cells were left untreated or treated with rhTNF-α (20 ng/mL), rhIFN-γ (200 U/mL) or the combination of rhTNF-α (20 ng/mL) and […] (200 U/mL) for 24 h. Afterwards, the cells were detached and the surface expression of CD44, CD54, MHC-class I and B7H1 were assessed using staining with PE conjugated antibodies followed by flow cytometric analysis. Isotype control antibodies were used as controls (FIG. 25B) MP2 and Capan cells were treated as described in FIG. 25A, and were detached from the tissue culture plates, labeled with ^51Cr and used in a standard 4-hour ^51Cr release assay using IL-2 (1000 U/mL) treated NK cells. Pre-treatment of NK cells with IL-2 (1000 U/mL) were carried out for 18-24 h. Percent cytotoxicity was determined at different effector to target ratio and the lytic units 30/10^6 cells were determined using inverse number of NK cells required to lyse 30% of the tumor cells×100 (FIG. 25C).

The test system of the next data set is MP2. The experiment in a line: Resistance to NK cell mediated cytotoxicity after cytokine treatment, 4-hour 51Cr release assay. The following applies: rhTNF-α 20 ng/mL or rhIFN-γ 200 U/mL; IL-2 treated NK cells. As to the method:
as §4

Setting [4] is: stem-like/poorly differentiated OSCSCs, cisplatin 10-80 μg/ml for 18 h in FIG. 1F.

Entries after “also recorded” stand apart in the source; their conditions may differ.

In the case of `N.N.[Cl][Pt][Cl]` [CDDP, cis-dichlorodiammineplatinum], the cell death result with OSCCs was “higher cell death”; in the data set on OSCSCs (NK-differentiated OSCSCs), “higher cell death”; with OSCSCs (setting [4]), “not susceptible to CDDP induced cell death; also recorded: minimal effects”; with MP2 tumors [1], “resistant”; in the data set on PL12 tumors, “killed”; in data set [2], “killed”.
On to `CC(=O)N[C@@H](CS)C(=O)O` [NAC, N-Acetyl Cysteine], for which the “paclitaxel mediated cell death on addition of NAC” value in the data set with MP2 tumors [1] (NAC (20 nM) 24 h, followed by paclitaxel) is recorded as “increased paclitaxel mediated cell death”; in the data set on PL12 tumors (NAC then paclitaxel), “increased paclitaxel mediated cell death”; with Capan tumors (NAC then paclitaxel), “increased paclitaxel mediated cell death”; in data set [2] (NAC (20 nM) 24 h, followed by paclitaxel 10 nM to 600 nM) it was “increased cell death; also recorded: increased paclitaxel mediated death”.
Take `CC(=O)O[C@H]1C(=O)[C@@]2(C)[C@H]([C@H](OC(=O)c3ccccc3)[C@]3(O)C[C@H](OC(=O)[C@H](O)[C@@H](NC(=O)c4ccccc4)c4ccccc4)C(C)=C1C3(C)C)[C@]1(OC(C)=O)CO[C@@H]1C[C@@H]2O` [paclitaxel]: the cell death result in the data set with OSCCs is reported as “higher cell death”; in the data set on OSCSCs (NK-differentiated OSCSCs), “higher cell death”; in the data set with OSCSCs (setting [4]) it was “minimal effects”; in the data set on MP2 tumors [1], “resistant”; with PL12 tumors, “much higher levels of cell death; also recorded: higher induction of cell death; also recorded: killed”; in the data set on Capan tumors (well-differentiated Capan, compared with MP2, 18-20 hours), “much higher levels of cell death; also recorded: higher induction of cell death”. Also, in data set [2], the cell death result is on record as “higher induction of cell death; also recorded: killed”.
“rhIFN-γ: recombinant human IFN-γ from Biolegend”: the “surface expression of B7H1” value in the data set on MP2 tumors [3] is “able to upregulate B7H1”. Further, the “surface expression of CD44, CD54, MHC-class I and B7H1” value in the data set with MP2 tumors [3] (rhTNF-α 20 ng/mL) is “increase surface expression of CD54 and MHC-class I”.

B1: rhIFN-γ: recombinant human IFN-γ from Biolegend (protein, UniProt P01579 24-161, looked up)
Interferon gamma: QDPYVKEAENLKKYFNAGHSDVADNGTLFLGILKNWKEESDRKIMQSQIVSFYFKLFKNFKDDQSIQKSVETIKEDMNVKFFNSNKKKRDDFEKLTNYSVTDLNVQRKAIHELIQVMAELSPAAKTGKRKRSQMLFRG
On to B1, for which, in the data set on MP2, the “resistance against NK cell mediated cytotoxicity” value is “significant resistance”.
